Reference: patent US10597388B2, “Pyridazinone herbicides” (FMC CORPORATION, priority 2014, dated 2020)

Tests used:
Assay in all cases: Test C greenhouse herbicide test, pre- and postemergence
Assay type in all cases: in vivo
[1] = system: oilseed rape (Brassica napus)
Procedure, shortened: (§1)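 Visual 0–100 injury score (100 = complete control) taken against untreated controls after 13–15 d in greenhouse. Test chemicals, formulated in solvent plus surfactant, applied preemergence to seeds in loam–sand soil or postemergence to 1- to 4-leaf plants (2–18 cm).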

[2] = system: velvetleaf (Abutilon theophrasti)
Procedure, shortened: as §1

[3] = system: ryegrass, Italian (Italian ryegrass, Lolium multiflorum)
Procedure, shortened: as §1

[4] = system: waterhemp (common waterhemp, Amaranthus rudis)
Procedure, shortened: as §1

corn (Zea mays) = system: corn (Zea mays)
Procedure, shortened: as §1

[5] = system: pigweed (Amaranthus retroflexus)
Procedure, shortened: as §1

[6] = system: wheat (winter wheat, Triticum aestivum)
Procedure, shortened: as §1

[7] = system: foxtail, giant (giant foxtail, Setaria faberii)
Procedure, shortened: as §1

[8] = system: nutsedge, yellow (yellow nutsedge, Cyperus esculentus)
Procedure, shortened: as §1

[9] = system: lambsquarters (Chenopodium album)
Procedure, shortened: as §1

[10] = system: johnsongrass (Sorghum halepense)
Procedure, shortened: as §1

[11] = system: morningglory (Ipomoea coccinea)
Procedure, shortened: as §1

[12] = system: crabgrass, large (large crabgrass, Digitaria sanguinalis)
Procedure, shortened: as §1

soybean (Glycine max) = system: soybean (Glycine max)
Procedure, shortened: as §1

[13] = system: galium (catchweed bedstraw, Galium aparine)
Procedure, shortened: as §1

[14] = system: blackgrass (Alopecurus myosuroides)
Procedure, shortened: as §1

[15] = Postemergence, 125 g ai/ha, scale 0 to 100, 0 is no effect, 100 is complete control
[16] = Postemergence, 250 g ai/ha, scale 0 to 100, 0 no effect, 100 complete control, 13 to 15 d
[17] = Preemergence, 31 g ai/ha, scale 0 to 100, 0 is no effect, 100 is complete control
[18] = Preemergence, 62 g ai/ha, scale 0 to 100, 0 is no effect, 100 is complete control
[19] = Preemergence, 125 g ai/ha, scale 0 to 100, 0 is no effect, 100 is complete control
[20] = Preemergence, 250 g ai/ha, scale 0 to 100 (0 no effect, 100 complete control)
[21] = postemergence, 62 g ai/ha, scale 0 to 100, 0 no effect, 100 complete control
[22] = Postemergence, 31 g ai/ha, 0 to 100 scale (0 no effect, 100 complete control)

C#CCOC(=O)Oc1c(C)nn(C)c(=O)c1-c1c(C)sc2ccc(C)cc12 [Compound 87]
Plant response rating, Oilseed Rape [1, 15]: 50 | Plant response rating, Oilseed Rape [1, 16]: 20 | Plant response rating, Oilseed Rape [1, 17]: 30 | Plant response rating, Oilseed Rape [1, 18]: 30 | Plant response rating, Oilseed Rape [1, 19]: 85 | Oilseed Rape plant response rating [1, 20]: 80 | Oilseed Rape plant response rating [1, 21]: 50 | Plant response rating, Velvetleaf [2, 15]: 90 | Plant response rating, Velvetleaf [2, 16]: 90 | Plant response rating, Velvetleaf [2, 17]: 55 | Plant response rating, Velvetleaf [2, 18]: 85 | Plant response rating, Velvetleaf [2, 19]: 90 | Velvetleaf plant response rating [2, 20]: 90 | Velvetleaf plant response rating [2, 21]: 85 | Plant response rating, Ryegrass, Italian [3, 15]: 85 | Plant response rating, Ryegrass, Italian [3, 16]: 85 | Plant response rating, Ryegrass, Italian [3, 17]: 35 | Plant response rating, Ryegrass, Italian [3, 18]: 90 | Plant response rating, Ryegrass, Italian [3, 19]: 90 | Ryegrass, Italian plant response rating [3, 20]: 90 | Ryegrass, Italian plant response rating [3, 21]: 80 | Plant response rating, Waterhemp [4, 15]: 90 | Plant response rating, Waterhemp [4, 16]: 90 | Plant response rating, Waterhemp [4, 17]: 100 | Plant response rating, Waterhemp [4, 18]: 100 | Plant response rating, Waterhemp [4, 19]: 100 | Waterhemp plant response rating [4, 20]: 100 | Waterhemp plant response rating [4, 21]: 80 | Corn plant response rating (corn (Zea mays); [22]): 5 | Plant response rating, Corn (corn (Zea mays); [15]): 30 | Plant response rating, Corn (corn (Zea mays); [16]): 5 | Plant response rating, Corn (corn (Zea mays); [17]): 0 | Plant response rating, Corn (corn (Zea mays); [18]): 10 | Plant response rating, Corn (corn (Zea mays); [19]): 0 | Corn plant response rating (corn (Zea mays); [20]): 10 | Corn plant response rating (corn (Zea mays); [21]): 5 | Plant response rating, Pigweed [5, 15]: 90 | Plant response rating, Pigweed [5, 16]: 98 | Plant response rating, Pigweed [5, 17]: 75 | Plant response rating, Pigweed [5, 18]: 100 | Plant response rating, Pigweed [5, 19]: 100 | Pigweed plant response rating [5, 20]: 100 | Pigweed plant response rating [5, 21]: 90 | Plant response rating, Wheat [6, 15]: 0 | Plant response rating, Wheat [6, 16]: 0 | Plant response rating, Wheat [6, 17]: 0 | Plant response rating, Wheat [6, 18]: 0 | Plant response rating, Wheat [6, 19]: 0 | Wheat plant response rating [6, 20]: 0 | Wheat plant response rating [6, 21]: 0 | Plant response rating, Foxtail, Giant [7, 15]: 75 | Plant response rating, Foxtail, Giant [7, 16]: 85 | Plant response rating, Foxtail, Giant [7, 17]: 70 | Plant response rating, Foxtail, Giant [7, 18]: 80 | Plant response rating, Foxtail, Giant [7, 19]: 90 | Foxtail, Giant plant response rating [7, 20]: 95 | Foxtail, Giant plant response rating [7, 21]: 55 | Plant response rating, Nutsedge, Yellow [8, 15]: 80 | Plant response rating, Nutsedge, Yellow [8, 16]: 85 | Plant response rating, Nutsedge, Yellow [8, 17]: 10 | Plant response rating, Nutsedge, Yellow [8, 18]: 35 | Plant response rating, Nutsedge, Yellow [8, 19]: 85 | Nutsedge, Yellow plant response rating [8, 20]: 80 | Nutsedge, Yellow plant response rating [8, 21]: 80 | Plant response rating, Lambsquarters [9, 15]: 98 | Plant response rating, Lambsquarters [9, 16]: 100 | Plant response rating, Lambsquarters [9, 17]: 55 | Plant response rating, Lambsquarters [9, 18]: 80 | Plant response rating, Lambsquarters [9, 19]: 85 | Lambsquarters plant response rating [9, 20]: 100 | Lambsquarters plant response rating [9, 21]: 98 | Plant response rating, Johnsongrass [10, 15]: 5 | Plant response rating, Johnsongrass [10, 16]: 10 | Plant response rating, Johnsongrass [10, 17]: 5 | Plant response rating, Johnsongrass [10, 18]: 25 | Plant response rating, Johnsongrass [10, 19]: 40 | Johnsongrass plant response rating [10, 20]: 40 | Johnsongrass plant response rating [10, 21]: 5 | Plant response rating, Morningglory [11, 15]: 100 | Plant response rating, Morningglory [11, 16]: 100 | Plant response rating, Morningglory [11, 17]: 85 | Plant response rating, Morningglory [11, 18]: 90 | Plant response rating, Morningglory [11, 19]: 95 | Morningglory plant response rating [11, 20]: 95 | Morningglory plant response rating [11, 21]: 98 | Plant response rating, Crabgrass, Large [12, 15]: 25 | Plant response rating, Crabgrass, Large [12, 16]: 35 | Plant response rating, Crabgrass, Large [12, 17]: 10 | Plant response rating, Crabgrass, Large [12, 18]: 65 | Plant response rating, Crabgrass, Large [12, 19]: 80 | Crabgrass, Large plant response rating [12, 20]: 85 | Crabgrass, Large plant response rating [12, 21]: 10 | Plant response rating, Soybean (soybean (Glycine max); [15]): 10 | Plant response rating, Soybean (soybean (Glycine max); [16]): 5 | Plant response rating, Soybean (soybean (Glycine max); [17]): 0 | Plant response rating, Soybean (soybean (Glycine max); [18]): 0 | Plant response rating, Soybean (soybean (Glycine max); [19]): 100 | Soybean plant response rating (soybean (Glycine max); [20]): 0 | Soybean plant response rating (soybean (Glycine max); [21]): 0 | Plant response rating, Galium [13, 15]: 95 | Plant response rating, Galium [13, 16]: 98 | Plant response rating, Galium [13, 17]: 95 | Plant response rating, Galium [13, 18]: 95 | Plant response rating, Galium [13, 19]: 98 | Galium plant response rating [13, 20]: 98 | Galium plant response rating [13, 21]: 95 | Blackgrass plant response rating [14, 22]: 10 | Plant response rating, Blackgrass [14, 15]: 60 | Plant response rating, Blackgrass [14, 16]: 65 | Plant response rating, Blackgrass [14, 17]: 40 | Plant response rating, Blackgrass [14, 18]: 30 | Plant response rating, Blackgrass [14, 19]: 85 | Blackgrass plant response rating [14, 20]: 90 | Blackgrass plant response rating [14, 21]: 35
